Test results as given in patent publication US9364474B2, “Method for treatment of neurologic dysfunction” (MedDEV, Inc., priority 2004, dated 2016).

Experiments:
MAO-B = biological target: T1, MAO-B (Homo sapiens, UniProt P27338); conditions: Egashira et al (1996); Gnerre et al (2001); cited from earlier work
T1 sequence (P27338 1-520): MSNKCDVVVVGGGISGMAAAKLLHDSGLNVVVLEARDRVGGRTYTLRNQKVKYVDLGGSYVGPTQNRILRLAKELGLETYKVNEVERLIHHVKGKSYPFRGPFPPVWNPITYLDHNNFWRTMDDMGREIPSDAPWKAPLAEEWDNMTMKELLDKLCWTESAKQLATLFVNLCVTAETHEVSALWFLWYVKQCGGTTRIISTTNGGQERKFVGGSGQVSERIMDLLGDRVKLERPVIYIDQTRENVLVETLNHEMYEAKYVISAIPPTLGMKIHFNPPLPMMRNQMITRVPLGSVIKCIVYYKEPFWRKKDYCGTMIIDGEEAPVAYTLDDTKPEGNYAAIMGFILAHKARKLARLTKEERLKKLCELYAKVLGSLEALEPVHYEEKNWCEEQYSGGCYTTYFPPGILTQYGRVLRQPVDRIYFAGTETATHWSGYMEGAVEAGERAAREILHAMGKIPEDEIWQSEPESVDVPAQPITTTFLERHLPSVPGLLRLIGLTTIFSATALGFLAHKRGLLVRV

MAO-A = conditions: Egashira et al (1996); Gnerre et al (2001); cited from earlier work
[1] = system: patient diagnosed with chronic schizophrenia; test: Case example: patient with chronic schizophrenia, transdermal reserpine spray (with prior medication history); format: in vivo, human; conditions: prior treatment
patient with Autism = test: Case examples: patients with Autism (ASD), transdermal reserpine (with prior medication history); format: in vivo, human; conditions: for success of prior treatments: ASD Example Three: person, prior treatments tried
Experimental: The treatment composition is suitably applied in a single daily dose, e.g., 0.01 mg of the MAO-A agonist in 0.05 ml of spray solution applied once every morning.
Prior to administration of the present invention (transdermal reserpine), the patient's parents were provided with an informed consent documenting the potential risks, benefits and alternatives to this treatment. The patient was started on a dose of Reserpine at a 4× dilution resulting in a total dose of 0.01 mg. […] They were also given approximately 1400 mg of Calcium every morning.

[2] = system: patient suffering from depression; conditions: Depression Example Four; taking nortriptyline
Experimental: The treatment composition is suitably applied in a single daily dose, e.g., 0.01 mg of the MAO-A agonist in 0.05 ml of transdermal cream applied once every morning. Caffeine may also be included in the composition to compensate for the anti-hypertensive effect of the preferred reserpine; the caffeine may suitably be included in an amount from about 50-100 mg/dose.
Treatment was in the form of 0.01 mg of reserpine per 0.05 ml of transdermal cream, applied transdermally once a day in the morning.
The treatment consisted of 0.01 mg of reserpine per 0.05 ml of cream, applied transdermally by rubbing the cream into the skin once a day in the morning.
The treatment consisted of 0.01 mg of the reserpine per 0.05 ml of cream, applied transdermally by rubbing the cream into the skin once a day in the morning.
The patient discontinued the use of nortriptyline and the same day started the treatment of the present invention, using 0.01 mg of the reserpine per 0.05 ml cream, applied transdermally by rubbing the cream into the skin once a day in the morning.
The patient then started the treatment of the present invention, using 0.01 mg of the MAO-A activity stimulator (reserpine) per 0.05 ml cream, applied transdermally by rubbing the cream into the skin once a day in the morning.

aldehyde dehydrogenase = conditions: literature; cited from earlier work
[3] = system: ethanol-preferring laboratory hamsters; conditions: cited from earlier work

Compound	activity towards MAO-B relative to MAO-A (MAO-B)	activity towards MAO-A (MAO-A)	also measured
CN1Cc2c(N)cccc2C(c2ccccc2)C1 (stereo not drawn) [nomifensine]	clearly more potent selectivity for MAO-B	inhibitory activity	
O=C1CCc2ccc(OCCCCN3CCN(c4cccc(Cl)c4Cl)CC3)cc2N1 [Abilify]			tolerability and efficacy of prior medication ([1]; Schizophrenia Example One): tolerated better but still had many symptoms unresolved
CN(C)CCC=C1c2ccccc2CCc2ccccc21 [amitriptyline]	clearly more potent selectivity for MAO-B	inhibitory activity	
COC(=O)C(c1ccccc1)C1CCCCN1 (stereo not drawn) [Ritalin]			success of prior treatments (patient with Autism): none to minimal success
CN(C)C/C=C(/c1ccc(Br)cc1)c1cccnc1 [zimeldine]	clearly more potent selectivity for MAO-B	inhibitory activity	
CNCCC=C1c2ccccc2CCc2ccccc21 [nortriptyline]	clearly more potent selectivity for MAO-B	inhibitory activity	symptoms persisting despite prior medication [2]: Decreased energy, fatigue • Early morning awakening
CCOc1ccccc1OCC1CNCCO1 (stereo not drawn) [viloxazine]	clearly more potent selectivity for MAO-B	inhibitory activity	
CNCCC(Oc1ccc(C(F)(F)F)cc1)c1ccccc1 (stereo not drawn) [fluoxetine]	clearly more potent selectivity for MAO-B	inhibitory activity	
CN(C)CCCN1c2ccccc2CCc2ccccc21 [imipramine]	clearly more potent selectivity for MAO-B	inhibitory activity	
CCCC(CCC)C(=O)O [depakote]			success of prior treatments (patient with Autism): none to minimal success; side effects of prior medication ([1]; Schizophrenia Example One: person, discontinued): extremely lethargic and obese
O=C1CC[C@@]2(O)[C@H]3Cc4ccc(O)c5c4[C@@]2(CCN3CC2CC2)[C@H]1O5 [naltrexone]			success of prior treatments (patient with Autism): none to minimal success
COc1ccc2[nH]cc(CCNC(C)=O)c2c1 [melatonin]			success of prior treatments (patient with Autism): none to minimal success
CNCCCC12CCC(c3ccccc31)c1ccccc12 [maprotiline]	clearly more potent selectivity for MAO-B	inhibitory activity	
OCCOCCN1CCN(C2=Nc3ccccc3Sc3ccccc32)CC1 [Seroquel]			success of prior treatments (patient with Autism): none to minimal success
COCCCC/C(=N\OCCN)c1ccc(C(F)(F)F)cc1 [fluvoxamine]	clearly more potent selectivity for MAO-B	inhibitory activity	
CN(C)CCCN1c2ccccc2CCc2ccc(Cl)cc21 [clomipramine]	clearly more potent selectivity for MAO-B	inhibitory activity	
O=c1c(-c2ccc(O)cc2)coc2cc(O[C@@H]3O[C@H](CO)[C@@H](O)[C@H](O)[C@H]3O)ccc12 [daidzin]			effect on aldehyde dehydrogenase (aldehyde dehydrogenase): inhibits aldehyde dehydrogenase; effect on ethanol intake [3]: suppress ethanol intake
OCCOCCN1CCN(C2=Nc3ccccc3Sc3ccccc32)CC1 [quetiapine]			functional benefit of prior medication (patient with Autism; ASD Example One, prior trials at therapeutic doses, only quetiapine of six medications): functional improvements
CN(C)CCC=C1c2ccccc2COc2ccccc21 [doxepine]	clearly more potent selectivity for MAO-B	inhibitory activity	
